From patent US9499572B2, “Phosphatidylalkanols and compositions thereof” (Pethmark AB, priority 2013, dated 2016)
Counter-ions that a name gives are not always drawn.

Experiment: Estimated concentration in DMSO-d6 after shaking an excess at 38° C., cooling to 22° C. and decantation (1H-NMR integrals)
Type: physicochemical
Settings: organic solvent or mixture, thermodynamic from solid, Composition Example 13, excess shaken at 38° C. for 15 min, cooled to 22° C., decanted, no additive, read-out: concentration in the solution (limit of solubility)
Protocol: A mixture of PEth-16:0/18:1-NMe3 (15 mg), dimethyl sulfone (0.4 mg) and DMSO-d6 (0.75 ml) was shaken at 38° C. for 15 min. The mixture was then allowed to reach ambient temperature (22° C.) and kept at that temperature for 1 h. The solution was then separated from a glassy precipitate by decantation and transferred to an NMR-tube. The concentration of PEth-16:0/18:1-NMe3 in the solution was estimated to be about 3 mg/ml by comparison of ^1H-NMR integrals in the ^1H-NMR spectrum (FIG. 7) of signals from PEth-16:0/18:1-NMe3 with the signal of dimethyl sulfone.

In the case of `CCCCCCCC/C=C\CCCCCCCC(=O)O[C@H](COC(=O)CCCCCCCCCCCCCCC)COP(=O)(O)OCC` [PEth-16:0/18:1-NMe3, 1-Palmitoyl-2-oleoyl-3-ethoxyhydroxyphosphinyl-sn-glycerol trimethylammonium salt], the solubility at 15 min is reported as roughly 3000 µg/mL.
